Literature values in patent publication US20260120816A1, “PREDICTION METHOD FOR PROTOPORPHYRINOGEN OXIDASE (PPO) INHIBITOR” (Pan Advanced Business Research, LLC, priority 2024, published 2026).

Details: control compound, Non Patent Literature 8

In the case of `CC(=O)c1c(C)nn(C)c1O` [compound B, 1-(5-hydroxy-1,3-dimethyl-1H-pyrazol-4-yl)ethanone], the herbicidal activity is given as “no herbicidal activity at all”.
